Data: patent publication US7547803B2, “Process for producing a high purity aromatic polycarboxylic acid” (Mitsubishi Gas Chemical Company, Inc., priority 2003, dated 2009)

Assay: solubility in water at 280° C.
Type: physicochemical

## O=C(O)c1ccc2cc(C(=O)O)ccc2c1 [2,6-naphthalenedicarboxylic acid]
  solubility of 2,6-naphthalenedicarboxylic acid in water: about 6 g in 100 g of water
